Columns and labels:
[1] = system: Rattus norvegicus; experiment: Compound was evaluated for diuretic activity administered orally in female rats measured as milliequivalents of Na+x 100 / cage at 27 mg/kg; format: functional, Urine; conditions: route oral
[2] = system: Rattus norvegicus; experiment: Compound was evaluated for diuretic activity administered orally in female rats measured as milliequivalents of K+x 100 / cage at 27 mg/kg; format: functional, Urine; conditions: route oral
[3] = system: Pan troglodytes; experiment: Compound was evaluated for diuretic activity in chimpanzee measured as clearance of […] and urate after intra venous administration of 1 mg/kg; format: functional, Urine
[4] = system: Pan troglodytes; experiment: Compound was evaluated for diuretic activity in chimpanzee measured as increase in the number of microequivalents of Cl- electrolyte/min at 1 mg/kg; format: functional, Urine
[5] = system: Rattus norvegicus; experiment: Compound was evaluated for diuretic activity administered orally in female rats measured as milliequivalents of Na+x 100 / cage at 81 mg/kg; format: functional, Urine; conditions: route oral
[6] = system: Rattus norvegicus; experiment: Compound was evaluated for diuretic activity administered orally in female rats measured as milliequivalents of K+x 100 / cage at 9 mg/kg; format: functional, Urine; conditions: route oral
[7] = system: Rattus norvegicus; experiment: Compound was evaluated for diuretic activity administered orally in female rats measured as milliequivalents of Na+x 100 / cage at 3 mg/kg; format: functional, Urine; conditions: route oral
[8] = system: Rattus norvegicus; experiment: Compound was evaluated for diuretic activity administered orally in female rats measured as milliequivalents of Na+x 100 / cage at 9 mg/kg; format: functional, Urine; conditions: route oral
[9] = system: Canis familiaris; experiment: Compound was evaluated for diuretic activity, in female mongrel dogs by measuring volume of urine, after iv administration of 5 mg/kg (control/compound treatment results) Control = 2; format: ADME, organism-based, Canis lupus familiaris; set-up: dose 5 mg/kg, route intravenous; conditions: dog, in vivo
[10] = species: Canis familiaris; experiment: (§1) Volume of urine in dog; format: ADME, organism-based, Canis lupus familiaris; conditions: in vivo
[11] = system: Pan troglodytes; experiment: Compound was evaluated for diuretic activity in chimpanzee measured as increase in the number of microequivalents of K+ /min at 5 mg/kg; format: functional, Urine
[12] = system: Pan troglodytes; experiment: Compound was evaluated for diuretic activity in chimpanzee measured as increase in the number of microequivalents of Cl- electrolyte/min at 5 mg/kg; format: functional, Urine
[13] = system: Canis familiaris; experiment: Compound was evaluated for diuretic activity, administered orally in female mongrel dogs (5 mg/kg) measured as milliequivalents of Na; format: functional, Canis lupus familiaris, Urine
[14] = system: Pan troglodytes; experiment: Compound was evaluated for diuretic activity in chimpanzee measured as increase in the number of microequivalents of K+ /min at 1 mg/kg; format: functional, Urine
[15] = system: Rattus norvegicus; experiment: Compound was evaluated for diuretic activity administered orally in female rats measured as milliequivalents of Cl-+x 100 / cage at 27 mg/kg; format: functional, Urine; conditions: route oral
[16] = Volume of urine at 9 mg/kg; format: ADME, organism-based; set-up: dose 9 mg/kg; conditions: in vivo
[17] = system: Canis familiaris; experiment: Compound was evaluated for diuretic activity, administered orally in female mongrel dogs (5 mg/kg) measured as milliequivalents of Cl-; format: functional, Canis lupus familiaris, Urine
[18] = system: Rattus norvegicus; experiment: Compound was evaluated for diuretic activity administered orally in female rats measured as milliequivalents of Cl-x 100 / cage at 81 mg/kg; format: functional, Urine; conditions: route oral
[19] = system: Rattus norvegicus; experiment: Compound was evaluated for diuretic activity administered orally in female rats measured as milliequivalents of K+x 100 / cage at 3 mg/kg; format: functional, Urine; conditions: route oral
[20] = system: Pan troglodytes; experiment: Compound was evaluated for diuretic activity in chimpanzee measured as increase in volume of urine at 5 mg/kg; format: functional
[21] = Volume of urine at 3 mg/kg; format: ADME, organism-based; set-up: dose 3 mg/kg; conditions: in vivo
[22] = system: Canis familiaris; experiment: Compound was evaluated for diuretic activity, administered orally in female mongrel dogs (5 mg/kg) measured as milliequivalents of K; format: functional, Canis lupus familiaris, Urine
[23] = system: Canis familiaris; experiment: Compound was evaluated for diuretic activity, in female mongrel dogs by measuring amount of Cl- in urine after iv administration of 5 mg/kg (control/compound treatment results) Control = 9; format: functional, Canis lupus familiaris
[24] = Volume of urine at 81 mg/kg; format: ADME, organism-based; set-up: dose 81 mg/kg; conditions: in vivo
[25] = system: Canis familiaris; experiment: Compound was evaluated for diuretic activity, in female mongrel dogs by measuring amount of Na+ in urine after iv administration of 5 mg/kg (control/compound treatment results) Control = 24; format: functional, Canis lupus familiaris
[26] = system: Pan troglodytes; experiment: Compound was evaluated for diuretic activity in chimpanzee measured as increase in the number of microequivalents of Na+ /min at 1 mg/kg; format: functional, Urine
[27] = system: Rattus norvegicus; experiment: Compound was evaluated for diuretic activity administered orally in female rats measured as milliequivalents of Cl-x 100 / cage at 9 mg/kg; format: functional, Urine; conditions: route oral
[28] = system: Pan troglodytes; experiment: Compound was evaluated for diuretic activity in chimpanzee measured as clearance of […] and urate after peroral administration of 5 mg/kg; format: functional, Urine; conditions: route oral
[29] = system: Pan troglodytes; experiment: Compound was evaluated for diuretic activity in chimpanzee measured as increase in the number of microequivalents of Na+ /min at 5 mg/kg; format: functional, Urine
[30] = system: Canis familiaris; experiment: Compound was evaluated for diuretic activity, in female mongrel dogs by measuring amount of K+ in urine after iv administration of 5 mg/kg (control/compound treatment results) Control = 5; format: functional, Canis lupus familiaris
[31] = system: Pan troglodytes; experiment: Compound was evaluated for diuretic activity in chimpanzee measured as increase in volume of urine at 1 mg/kg; format: functional
[32] = system: Rattus norvegicus; experiment: Compound was evaluated for diuretic activity administered orally in female rats measured as milliequivalents of Cl-x 100 / cage at 3 mg/kg; format: functional, Urine; conditions: route oral
[33] = Volume of urine at 27 mg/kg; format: ADME, organism-based; set-up: dose 27 mg/kg; conditions: in vivo
[34] = system: Rattus norvegicus; experiment: Compound was evaluated for diuretic activity administered orally in female rats measured as milliequivalents of K+x 100 / cage at 81 mg/kg; format: functional, Urine; conditions: route oral
[35] = volume of urine at 3 mg/kg; format: ADME, organism-based; set-up: dose 3 mg/kg; conditions: in vivo
[36] = volume of urine at 9 mg/kg; format: ADME, organism-based; set-up: dose 9 mg/kg; conditions: in vivo
[37] = volume of urine at 81 mg/kg; format: ADME, organism-based; set-up: dose 81 mg/kg; conditions: in vivo
[38] = system: Canis familiaris; experiment: Compound was evaluated for diuretic activity, in female mongrel dogs by measuring amount of K+ in urine after iv administration of 5 mg/kg (control/compound treatment results) Control = 13; format: functional, Canis lupus familiaris
[39] = species: Canis familiaris; experiment: as §1; format: functional, Canis lupus familiaris
[40] = system: Pan troglodytes; experiment: Compound was evaluated for diuretic activity in chimpanzee measured as increase in the number of microequivalents of Na+ /min at 1 0.5 mg/kg; format: functional, Urine
[41] = system: Canis familiaris; experiment: Compound was evaluated for diuretic activity, in female mongrel dogs by measuring amount of Na+ in urine after iv administration of 5 mg/kg (control/compound treatment results) Control = 59; format: functional, Canis lupus familiaris
[42] = system: Pan troglodytes; experiment: Compound was evaluated for diuretic activity in chimpanzee measured as clearance of […] and urate after intra venous administration of.1 5 mg/kg.; format: functional, Urine
[43] = system: Canis familiaris; experiment: Compound was evaluated for diuretic activity, in female mongrel dogs by measuring amount of Cl- in urine after iv administration of 5 mg/kg (control/compound treatment results) Control = 5; format: functional, Canis lupus familiaris
[44] = system: Pan troglodytes; experiment: Compound was evaluated for diuretic activity in chimpanzee measured as increase in the number of microequivalents of K+ /min at 1.5 mg/kg; format: functional, Urine
[45] = volume of urine at 27 mg/kg; format: ADME, organism-based; set-up: dose 27 mg/kg; conditions: in vivo
[46] = system: Pan troglodytes; experiment: Compound was evaluated for diuretic activity in chimpanzee measured as increase in the number of microequivalents of Cl- electrolyte/min at 1.5 mg/kg; format: functional, Urine

**Q.** For Cc1c(OCC(=O)O)cc2c(c1Cl)C(=O)C1(CCCC1)C2=O [(ACYLARYLOXY)ACETIC ACID], which Activity [1] is on record?
**A.** 35

**Q.** What about the Activity [2] of the same compound?
**A.** 32

**Q.** And the “Delta C urate / delta C insulin” value [3]?
**A.** 0.088

**Q.** And the Increase [4]?
**A.** 117

**Q.** And the Activity [5]?
**A.** 47

**Q.** And the Activity [6]?
**A.** 30

**Q.** And the Activity [7]?
**A.** 14

**Q.** And the Activity [8]?
**A.** 26

**Q.** And the Urine volume [9]?
**A.** 5 mL/min

**Q.** And the Urine volume [10]?
**A.** 253 mL

**Q.** And the Increase [11]?
**A.** 39

**Q.** And the Increase [12]?
**A.** 211

**Q.** And the Activity [13]?
**A.** 2

**Q.** What about the Increase [14] of the same compound?
**A.** 37

**Q.** What about the Activity [15] of the same compound?
**A.** 30

**Q.** What about the Urine volume [16] of the same compound?
**A.** 29 mL

**Q.** And the Activity [17]?
**A.** 3

**Q.** What about the Activity [18] of the same compound?
**A.** 61

**Q.** And the Activity [19]?
**A.** 23

**Q.** And the Increase in volume [20]?
**A.** -0.5 mL/min

**Q.** What about the Urine volume [21] of the same compound?
**A.** 29 mL

**Q.** What about the Activity [22] of the same compound?
**A.** 1

**Q.** What about the Activity [23] of the same compound?
**A.** 245 u equiv min-1

**Q.** What about the Urine volume [24] of the same compound?
**A.** 29 mL

**Q.** What about the Activity [25] of the same compound?
**A.** 305 u equiv min-1

**Q.** What about the Increase [26] of the same compound?
**A.** 59

**Q.** What about the Activity [27] of the same compound?
**A.** 15

**Q.** And the “Delta C urate / delta C insulin” value [28]?
**A.** 0.053

**Q.** And the Increase [29]?
**A.** 170

**Q.** What about the Activity [30] of the same compound?
**A.** 23 u equiv min-1

**Q.** What about the Increase in volume [31] of the same compound?
**A.** 1.1 mL/min

**Q.** And the Activity [32]?
**A.** 10

**Q.** What about the Urine volume [33] of the same compound?
**A.** 33 mL

**Q.** What about the Activity [34] of the same compound?
**A.** 29

**Q.** Which Activity [1] does the source give for NS(=O)(=O)c1cc2c(cc1Cl)NCNS2(=O)=O [HYDROCHLOROTHIAZIDE] here?
**A.** 168

**Q.** And the Activity [2]?
**A.** 61

**Q.** And the Urine volume [35]?
**A.** 37 mL

**Q.** And the Urine volume [36]?
**A.** 30 mL

**Q.** What about the Urine volume [37] of the same compound?
**A.** 33 mL

**Q.** And the Activity [5]?
**A.** 154

**Q.** And the Activity [6]?
**A.** 33

**Q.** And the Activity [7]?
**A.** 127

**Q.** And the Activity [38]?
**A.** 27 u equiv min-1

**Q.** What about the Activity [8] of the same compound?
**A.** 133

**Q.** And the Urine volume [9]?
**A.** 3 mL/min

**Q.** And the Volume of urine [39]?
**A.** 25

**Q.** What about the Increase [40] of the same compound?
**A.** 275

**Q.** And the Increase [11]?
**A.** 93

**Q.** What about the Increase [12] of the same compound?
**A.** 198

**Q.** And the Activity [13]?
**A.** 50

**Q.** What about the Activity [15] of the same compound?
**A.** 191

**Q.** What about the Activity [41] of the same compound?
**A.** 193 u equiv min-1

**Q.** And the Activity [17]?
**A.** 7

**Q.** And the Activity [18]?
**A.** 163

**Q.** What about the Activity [19] of the same compound?
**A.** 50

**Q.** What about the Increase in volume [20] of the same compound?
**A.** 1 mL/min

**Q.** And the “Delta C urate / delta C insulin” value [42]?
**A.** 0.01

**Q.** What about the Activity [22] of the same compound?
**A.** 18

**Q.** And the Activity [27]?
**A.** 143

**Q.** And the “Delta C urate / delta C insulin” value [28]?
**A.** -0.015

**Q.** And the Activity [43]?
**A.** 11 u equiv min-1

**Q.** What about the Increase [44] of the same compound?
**A.** 25

**Q.** And the Increase [29]?
**A.** 144

**Q.** And the Increase in volume [31]?
**A.** 1.8 mL/min

**Q.** And the Activity [32]?
**A.** 146

**Q.** What about the Activity [34] of the same compound?
**A.** 61

**Q.** And the Urine volume [45]?
**A.** 32 mL

**Q.** What about the Increase [46] of the same compound?
**A.** 187

From ChEMBL document CHEMBL1122681, “(Acylaryloxy)acetic acid diuretics. 5. [(2-Alkyl- and 2,2-disubstituted-1,3-dioxo-5-indanyl)oxy]acetic acids” (J Med Chem, 1984)
